From the NIST ThermoML archive (doi:10.1021/je501083d)
Numbers after ± are expanded uncertainties.

Details: 101.33 kPa, Liquid, Pycnometric method

## CCCC[n+]1ccn(C)c1.O=S(=O)([N-]S(=O)(=O)C(F)(F)F)C(F)(F)F
288.2 K
  mass density: 1443.6 ± 6.1 kg/m3
293.2 K
  mass density: 1439.7 ± 6.1 kg/m3
298.2 K
  mass density: 1435.6 ± 6 kg/m3
303.2 K
  mass density: 1431.3 ± 6 kg/m3
308.2 K
  mass density: 1426.8 ± 6 kg/m3
313.2 K
  mass density: 1421.9 ± 6 kg/m3

## CCCCn1cc[n+](C)c1.F[P-](F)(F)(F)(F)F [1-butyl-3-methylimidazolium hexafluorophosphate]
288.2 K
  mass density: 1375.8 ± 2.8 kg/m3
293.2 K
  mass density: 1371.5 ± 2.8 kg/m3
298.2 K
  mass density: 1368.4 ± 2.8 kg/m3
303.2 K
  mass density: 1363.5 ± 2.8 kg/m3
308.2 K
  mass density: 1359.3 ± 2.8 kg/m3
313.2 K
  mass density: 1355 ± 2.8 kg/m3

## CCCCn1cc[n+](C)c1.F[B-](F)(F)F [1-butyl-3-methylimidazolium tetrafluoroborate]
288.2 K
  mass density: 1205.4 ± 2.5 kg/m3
293.2 K
  mass density: 1202.1 ± 2.5 kg/m3
298.2 K
  mass density: 1199.4 ± 2.5 kg/m3
303.2 K
  mass density: 1195.4 ± 2.5 kg/m3
308.2 K
  mass density: 1191.7 ± 2.5 kg/m3
313.2 K
  mass density: 1188 ± 2.5 kg/m3
